Earlier results in publication PMC9788431, “Combination of Docking-Based and Pharmacophore-Based Virtual Screening Identifies Novel Agonists That Target the Urotensin Receptor” (Molecules, 2022).
pEC50, pIC50: −log10 of the molar value. Several values for one entry are separate records, joined by “and”; a condition that tells them apart may be missing. Identical values can stand only once. Positions of bridges follow the written chain, without caps; N, C: chain ends. Non-standard residues stand in square brackets, D forms with d. Residues, ends and D or L forms follow the SMILES beside them. Phe(4-I) = N[C@@H](Cc1ccc(I)cc1)C(=O)O; dTle = CC(C)(C)[C@@H](N)C(=O)O

Molecular target: T1, UT receptor (Homo sapiens, UniProt Q9UKP6)
T1 construct: SNAP-tag; expressed in transfected cells; host or cells: 293A8 (HEK293A stably transfected with the UT receptor); inferred, the calcium-assay paragraph names no cells
T1 sequence (Q9UKP6 1-389): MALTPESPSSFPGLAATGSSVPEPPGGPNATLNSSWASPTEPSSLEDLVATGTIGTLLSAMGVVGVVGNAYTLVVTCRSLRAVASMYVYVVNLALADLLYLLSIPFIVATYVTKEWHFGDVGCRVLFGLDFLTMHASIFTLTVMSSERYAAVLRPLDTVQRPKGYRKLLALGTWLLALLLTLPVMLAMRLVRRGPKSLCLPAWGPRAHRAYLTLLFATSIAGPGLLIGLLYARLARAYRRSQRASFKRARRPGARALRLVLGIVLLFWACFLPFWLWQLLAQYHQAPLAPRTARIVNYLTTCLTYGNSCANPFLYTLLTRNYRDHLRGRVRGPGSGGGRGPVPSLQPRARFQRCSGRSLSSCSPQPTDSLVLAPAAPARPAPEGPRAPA
Conditions: agonist; Table S1 benchmarking ligands; ref ChEMBL database and others; cited from earlier work

Going from `NCCCC[C@@H]1NC(=O)[C@H](Cc2c[nH]c3ccccc23)NC(=O)[C@H](CO)NC(=O)CNC(=O)[C@@H]2CCCN2C(=O)[C@H](Cc2ccccc2)NC1=O` [CHEMBL593663] (cyclo(FPGSWK)) to `NCCCC[C@@H]1NC(=O)[C@H](Cc2c[nH]c3ccccc23)NC(=O)[C@H](CO)NC(=O)CNC(=O)[C@@H]2CCCN2C(=O)[C@H](Cc2c[nH]c3ccccc23)NC1=O` [CHEMBL608099] (cyclo(GSWKWP)), the pEC50 falls from 8.00 to 7.78 (0.22 log units).

Going from `NCCCC[C@@H]1NC(=O)[C@H](Cc2c[nH]c3ccccc23)NC(=O)[C@H](Cc2ccccc2)NC(=O)CNC(=O)[C@@H]2CCCN2C(=O)[C@H](Cc2ccc(O)cc2)NC1=O` [CHEMBL607809] (cyclo(FWKYPG)) to `NCCCC[C@@H]1NC(=O)[C@H](Cc2c[nH]c3ccccc23)NC(=O)[C@H](Cc2ccc(O)cc2)NC(=O)CNC(=O)[C@@H]2CCCN2C(=O)[C@H](Cc2ccccc2)NC1=O` [CHEMBL608097] (cyclo(FPGYWK)), the pEC50 falls from 8.16 to 7.12 (1.04 log units). The first is the more potent here.

`NCCCC[C@@H]1NC(=O)[C@H](Cc2c[nH]c3ccccc23)NC(=O)[C@H](Cc2ccc(O)cc2)NC(=O)CNC(=O)[C@@H]2CCCN2C(=O)[C@H](Cc2ccc(O)cc2)NC1=O` [CHEMBL607810] (cyclo(GYWKYP)) and `NCCCC[C@@H]1NC(=O)[C@H](Cc2c[nH]c3ccccc23)NC(=O)[C@H](Cc2ccccc2)NC(=O)CNC(=O)[C@@H]2CCCN2C(=O)[C@H](Cc2ccccc2)NC1=O` [CHEMBL607811] (cyclo(FPGFWK)) are within 0.2 log units of each other in pEC50: 7.90 for the first, 7.88 for the second.

Compared with `NCCCC[C@@H]1NC(=O)[C@H](Cc2c[nH]c3ccccc23)NC(=O)[C@H](Cc2ccccc2)NC(=O)CNC(=O)[C@@H]2CCCN2C(=O)[C@H](Cc2c[nH]c3ccccc23)NC1=O` [CHEMBL608098] (cyclo(FWKWPG)), `CC(C)[C@H](NC(=O)[C@@H]1CSSC[C@H](NC(=O)[C@@H](N)CC(=O)O)C(=O)N[C@@H](Cc2ccc(I)cc2)C(=O)N[C@@H](Cc2c[nH]c3ccccc23)C(=O)N[C@@H](CCCCN)C(=O)N[C@@H](Cc2ccc(O)cc2)C(=O)N1)C(=O)O` [CHEMBL4205274] (H-DC[Phe(4-I)]WKYCV-OH; disulfide 2-7) is 0.97 log units lower in pEC50: 7.69 for the first, 6.72 for the second. The first is the more potent here.

First: Cc1cc2c(cc1C)C(=O)OC(CCN(C)C)(c1ccc(Cl)c(Cl)c1)C2 (stereo not shown) [CHEMBL1171808]
Second: Cc1cc2c(cc1C)C(=O)OC(CCN(C)C)(c1ccc3ccccc3c1)C2 (stereo not shown) [CHEMBL1173399]
The pEC50 of the first is 0.46 log units higher: 7.29 for the first, 6.83 for the second.

Compared with `Cc1cc2c(cc1C)CC(CCN(C)C)(c1ccc3ccccc3c1)OC2` (stereo not shown) [CHEMBL1172223], `Cc1cc2c(cc1C)CC(CCN(C)C)(c1ccc(Cl)cc1)OC2` (stereo not shown) [CHEMBL1173492] is 0.42 log units lower in pEC50: 6.58 for the first, 6.16 for the second.

`CN(C)CCC1(c2ccc(Cl)c(Cl)c2)Cc2ccccc2C(=O)O1` (stereo not shown) [CHEMBL1172763] and `CN(C)CCC1(c2ccc(Cl)cc2)Cc2ccccc2CO1` (stereo not shown) [CHEMBL1173172] are within 0.2 log units of each other in pEC50: 6.17 for the first, 6.30 for the second.

First: C=CCN(CC=C)c1ccc2c(c1)CC(CCN(C)C)(c1ccc(Cl)cc1)OC2=O (stereo not shown) [CHEMBL1173081]
Second: CC(C)[C@H](NC(=O)[C@H](CS)NC(=O)[C@H](Cc1ccc(O)cc1)NC(=O)[C@H](CCCCN)NC(=O)[C@H](Cc1c[nH]c2ccccc12)NC(=O)[C@H](Cc1ccccc1)NC(=O)[C@H](CS)NC(=O)[C@H](CC(=O)O)NC(=O)[C@H]1CCCN1C(=O)[C@@H](NC(=O)[C@H](C)N)[C@@H](C)O)C(=O)O [CHEMBL2372899] (H-AT[dP]DCFWKYCV-OH)
The pEC50 of the first is 2.60 log units lower: 6.14 for the first, 8.74 for the second.

Compared with `CSCC[C@H](NC(=O)CNC(=O)[C@@H](NC(=O)CNC(=O)[C@@H](NC(=O)[C@H](NC(=O)[C@H](CC(N)=O)NC(=O)[C@H](CCCNC(=N)N)NC(=O)[C@H](Cc1ccccc1)NC(=O)[C@@H](N)CO)C(C)(C)C)C(C)C)[C@@H](C)O)C(=O)N[C@@H](CCCCN)C(=O)N[C@@H](CCCCN)C(=O)N[C@H](C(=O)N[C@@H](CO)C(=O)N[C@@H](Cc1ccccc1)C(=O)N[C@@H](CCC(N)=O)C(=O)N[C@@H](CCCNC(=N)N)C(=O)N[C@@H](C)C(=O)N[C@@H](CCCCN)C(=O)N[C@@H](CO)C(=O)O)[C@@H](C)O` [CHEMBL1627325] (H-SFRN[dTle]VGTGMKKTSFQRAKS-OH), `CC(C)[C@H](NC(=O)[C@H](CS)NC(=O)[C@H](Cc1ccc(O)cc1)NC(=O)[C@H](CCCCN)NC(=O)[C@H](Cc1c[nH]c2ccccc12)NC(=O)[C@H](Cc1ccccc1)NC(=O)[C@H](CS)NC(=O)[C@H](CC(=O)O)NC(=O)[C@H](C)NC(=O)[C@@H](NC(=O)[C@@H](N)CCC(=O)O)[C@@H](C)O)C(=O)O` [CHEMBL2372897] (H-ETADCFWKYCV-OH) is 0.26 log units higher in pEC50: 8.46 for the first, 8.72 for the second. The second is the more potent here.

Going from `CC(C)[C@H](NC(=O)[C@H](CS)NC(=O)[C@H](Cc1ccc(O)cc1)NC(=O)[C@H](CCCCN)NC(=O)[C@H](Cc1c[nH]c2ccccc12)NC(=O)[C@H](Cc1ccccc1)NC(=O)[C@H](C)NC(=O)[C@H](CC(=O)O)NC(=O)[C@H]1CCCN1C(=O)[C@@H](NC(=O)[C@@H](N)CCC(=O)O)[C@@H](C)O)C(=O)O` [CHEMBL2372895] (H-ET[dP]DAFWKYCV-OH) to `CC(C)[C@H](NC(=O)[C@H](CS)NC(=O)[C@H](Cc1ccc(O)cc1)NC(=O)[C@H](CCCCN)NC(=O)[C@H](Cc1c[nH]c2ccccc12)NC(=O)[C@H](Cc1ccccc1)NC(=O)[C@H](CS)NC(=O)[C@H](C)NC(=O)[C@H]1CCCN1C(=O)[C@@H](NC(=O)[C@@H](N)CCC(=O)O)[C@@H](C)O)C(=O)O` [CHEMBL2372896], the pEC50 rises from 6.63 to 8.57 (1.94 log units).

Compared with `CC(C)[C@H](NC(=O)[C@H](CS)NC(=O)[C@H](Cc1ccc(O)cc1)NC(=O)[C@H](CCCCN)NC(=O)[C@H](Cc1c[nH]c2ccccc12)NC(=O)[C@H](C)NC(=O)[C@H](CS)NC(=O)[C@H](CC(=O)O)NC(=O)[C@H]1CCCN1C(=O)[C@@H](NC(=O)[C@@H](N)CCC(=O)O)[C@@H](C)O)C(=O)O` [CHEMBL2372901] (H-ET[dP]DCAWKYCV-OH), `CC(C)[C@H](NC(=O)[C@H](CS)NC(=O)[C@H](C)NC(=O)[C@H](CCCCN)NC(=O)[C@H](Cc1c[nH]c2ccccc12)NC(=O)[C@H](Cc1ccccc1)NC(=O)[C@H](CS)NC(=O)[C@H](CC(=O)O)NC(=O)[C@H]1CCCN1C(=O)[C@@H](NC(=O)[C@@H](N)CCC(=O)O)[C@@H](C)O)C(=O)O` [CHEMBL2372903] (H-ET[dP]DCFWKACV-OH) is 1.53 log units lower in pEC50: 8.24 for the first, 6.71 for the second.

`CC(C)[C@H](NC(=O)[C@H](CS)NC(=O)[C@H](Cc1ccc(O)cc1)NC(=O)[C@H](CCCCN)NC(=O)[C@H](Cc1c[nH]c2ccccc12)NC(=O)[C@H](Cc1ccccc1)NC(=O)[C@H](CS)NC(=O)[C@H](CC(=O)O)NC(=O)[C@H]1CCCN1C(=O)[C@H](C)NC(=O)[C@@H](N)CCC(=O)O)C(=O)O` [CHEMBL2372902] (H-EA[dP]DCFWKYCV-OH) and `C[C@H](NC(=O)[C@H](CS)NC(=O)[C@H](Cc1ccc(O)cc1)NC(=O)[C@H](CCCCN)NC(=O)[C@H](Cc1c[nH]c2ccccc12)NC(=O)[C@H](Cc1ccccc1)NC(=O)[C@H](CS)NC(=O)[C@H](CC(=O)O)NC(=O)[C@H]1CCCN1C(=O)[C@@H](NC(=O)[C@@H](N)CCC(=O)O)[C@@H](C)O)C(=O)O` [CHEMBL2372907] (H-ET[dP]DCFWKYCA-OH) are within 0.2 log units of each other in pEC50: 8.48 for the first, 8.49 for the second.

In the case of `COc1ccc(/C=C/C2=NN(CCCCN)C(=O)N(Cc3ccc(-c4ccccc4)cc3)c3ccccc32)cc1` [CHEMBL4071437], the pEC50 is listed as 8.15 and 8.07.
In the case of `NCCCN1N=C(CCc2nc3ccccc3s2)c2ccccc2N(Cc2ccc3ccccc3c2)C1=O` [CHEMBL4076150], the pEC50 is given as 8.21 and 7.97.

Molecular target: T1, UT receptor
Set-up: method as in ChEMBL database and others
Conditions: antagonist; Table S1 benchmarking ligands; ref ChEMBL database and others; cited from earlier work

First: CN(CC(=O)N1CCCCC1CN1CCCC1)c1ccc(Cl)c(Cl)c1 (stereo not shown) [CHEMBL254154]
Second: CN(C)CCCOc1ccc(CN2CC[C@H](NC(=O)c3ccc(Cl)c(Cl)c3)C2)cc1 [CHEMBL366221]
The pIC50 of the first is 0.57 log units lower: 6.20 for the first, 6.77 for the second.

Going from `O=C(N[C@H]1CCN(Cc2ccc(OC3CCNCC3)c(Br)c2)C1)c1ccc(Cl)c(Cl)c1` [CHEMBL495075] to `COc1ccc([C@@H](CCCNS(=O)(=O)c2cccs2)N2C(=O)c3cccc(N4CCNCC4)c3C2=O)cc1OC` [CHEMBL566366], the pIC50 falls from 8.40 to 6.30 (2.10 log units). The first is the more potent here.

First: COc1ccc([C@@H](CCCN(C)S(=O)(=O)c2cccs2)N2Cc3c(cccc3N3CCNCC3)C2=O)cc1OC [CHEMBL565416]
Second: CCN1CCN(c2cccc3c2CN([C@H](CCCNS(=O)(=O)c2cccs2)c2ccc(OC)c(OC)c2)C3=O)CC1 [CHEMBL567713]
The pIC50 of the first is 1.71 log units lower: 6.39 for the first, 8.10 for the second. The second is the more potent here.

`COc1ccc([C@H](CCCNS(=O)(=O)c2cccs2)N2C(=O)c3cccc(N4CCN([C@H](C)c5ccccc5)CC4)c3C2=O)cc1OC` [CHEMBL565580] and `COc1ccc([C@@H](CCCNS(=O)(=O)c2cccs2)N2C(=O)c3cccc(N4CCN([C@H](C)c5ccccc5)CC4)c3C2=O)cc1OC` [CHEMBL568165] are within 0.2 log units of each other in pIC50: 6.59 for the first, 6.62 for the second.

`CCN1CCN(c2cccc3c2C(=O)N([C@H](CCCNS(=O)(=O)c2cccs2)c2ccc(OC)c(OC)c2)C3=O)CC1` [CHEMBL566433] and `COc1ccc([C@@H](CCCNS(=O)(=O)c2cccs2)N2C(=O)c3cccc(N4CCN(C)CC4)c3C2=O)cc1OC` [CHEMBL567949] are within 0.2 log units of each other in pIC50: 6.82 for the first, 6.66 for the second.

Compared with `CCN1CCN(c2cccc3c2CN([C@H](CCCNC(=O)c2cccs2)c2ccc(OC)c(OC)c2)C3=O)CC1` [CHEMBL567075], `CCN1CCN(c2cccc3c2CN([C@H](CCCNCc2cccs2)c2ccc(OC)c(OC)c2)C3=O)CC1` [CHEMBL568123] is 0.38 log units higher in pIC50: 6.85 for the first, 7.23 for the second.

Going from `COc1ccc([C@@H](CCCNS(=O)(=O)c2cccs2)N2C(=O)c3cccc(N4CCN(C(C)C)CC4)c3C2=O)cc1OC` [CHEMBL567736] to `COc1ccc([C@@H](CCCNS(=O)(=O)c2c(C)n[nH]c2C)N2C(=O)c3cccc(N4CCN([C@H](C)c5ccccc5)CC4)c3C2=O)cc1OC` [CHEMBL567759], the pIC50 rises from 6.82 to 7.33 (0.51 log units). The second is the more potent here.
